Reference: patent publication US9688710B2, “Inhibitors of sodium glucose cotransporter 1” (LEXICON PHARMACEUTICALS, INC., priority 2012, dated 2017)

Key:
[1] = target: Human sodium/glucose co-transporter type 1 (SGLT1) (Homo sapiens (Human), UniProt P13866); experiment: In vitro human SGLT1 inhibition assay (14C-AMG uptake); format: cell-based; parameters: key to SGLT1 (human SGLT1 IC50): ***: a value less than 0.01 μM; **: a value less than 0.1 μM; *: a value less than 1 μM; —: a value not measured or exceeding μM; settings: HEK293 cells expressing human HA-SGLT1, 14C-AMG uptake
Human sodium/glucose co-transporter type 1 (SGLT1), sequence (P13866 whole entry): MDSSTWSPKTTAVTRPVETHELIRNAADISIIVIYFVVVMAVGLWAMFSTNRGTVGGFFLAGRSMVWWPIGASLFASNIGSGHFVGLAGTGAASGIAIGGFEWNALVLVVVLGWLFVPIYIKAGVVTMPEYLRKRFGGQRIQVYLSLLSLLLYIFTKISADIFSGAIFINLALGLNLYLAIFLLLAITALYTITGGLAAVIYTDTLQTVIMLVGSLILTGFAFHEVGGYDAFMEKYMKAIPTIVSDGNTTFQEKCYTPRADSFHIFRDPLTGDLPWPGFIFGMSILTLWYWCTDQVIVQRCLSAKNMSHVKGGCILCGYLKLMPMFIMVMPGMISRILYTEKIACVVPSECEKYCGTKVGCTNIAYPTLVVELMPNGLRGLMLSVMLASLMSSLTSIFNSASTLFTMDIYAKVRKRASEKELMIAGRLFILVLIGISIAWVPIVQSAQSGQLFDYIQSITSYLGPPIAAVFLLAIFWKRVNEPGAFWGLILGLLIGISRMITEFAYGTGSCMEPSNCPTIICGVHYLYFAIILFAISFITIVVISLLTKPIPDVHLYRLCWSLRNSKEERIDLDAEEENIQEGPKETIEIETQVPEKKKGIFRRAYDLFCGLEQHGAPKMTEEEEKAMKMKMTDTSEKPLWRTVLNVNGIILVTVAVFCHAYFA
Protocol: Human sodium/glucose co-transporter type 1 (SGLT1; accession number NP_000334; GI: 4507031) was cloned into pIRESpuro2 vector for mammalian expression (construct: HA-SGLT1-pIRESpuro2).
HEK293 cells were transfected with the human HA-SGLT1-pIRESpuro2 vector and the bulk stable cell line was selected in presence of 0.5 μg/mL of puromycin. Human HA-SGLT1 cells were maintained in DMEM media containing 10% FBS, 1% GPS and 0.5 μg/mL of puromycin.
The HEK293 cells expressing the human HA-SGLT1 were seeded in 384 well plates (30,000 cells/well) in DMEM media containing 10% FBS, 1% GPS and 0.5 μg/mL of puromycin, then incubated overnight at 37 C, 5% CO2. Cells were then washed with uptake buffer (140 mM NaCl, 2 mM KCl, 1 mM CaCl2, 1 mM MgCl2, 10 mM HEPES, 5 mM Tris, 1 mg/mL bovine serum albumin (BSA), pH 7.3). Twenty microliters of uptake buffer with or without testing compounds were added to the cells. Then, 20 microliters of uptake buffer containing ^14C-AMG (100 nCi) were also added to cells. The cell plates were incubated at 37° C., 5% CO2 for 1-2 hours. After washing the cells with uptake buffer, scintillation fluid was added (40 microliters/well) and ^14C-AMG uptake was measured by counting radioactivity using a scintillation coulter (TopCoulter NXT; Packard Instruments).

[2] = target: Human sodium/glucose co-transporter type 2 (SGLT2) (Homo sapiens (Human), UniProt P31639); experiment: In vitro human SGLT2 inhibition assay (14C-AMG uptake); format: cell-based; settings: HEK293 cells expressing human HA-SGLT2, 14C-AMG uptake
Human sodium/glucose co-transporter type 2 (SGLT2), sequence (P31639 whole entry): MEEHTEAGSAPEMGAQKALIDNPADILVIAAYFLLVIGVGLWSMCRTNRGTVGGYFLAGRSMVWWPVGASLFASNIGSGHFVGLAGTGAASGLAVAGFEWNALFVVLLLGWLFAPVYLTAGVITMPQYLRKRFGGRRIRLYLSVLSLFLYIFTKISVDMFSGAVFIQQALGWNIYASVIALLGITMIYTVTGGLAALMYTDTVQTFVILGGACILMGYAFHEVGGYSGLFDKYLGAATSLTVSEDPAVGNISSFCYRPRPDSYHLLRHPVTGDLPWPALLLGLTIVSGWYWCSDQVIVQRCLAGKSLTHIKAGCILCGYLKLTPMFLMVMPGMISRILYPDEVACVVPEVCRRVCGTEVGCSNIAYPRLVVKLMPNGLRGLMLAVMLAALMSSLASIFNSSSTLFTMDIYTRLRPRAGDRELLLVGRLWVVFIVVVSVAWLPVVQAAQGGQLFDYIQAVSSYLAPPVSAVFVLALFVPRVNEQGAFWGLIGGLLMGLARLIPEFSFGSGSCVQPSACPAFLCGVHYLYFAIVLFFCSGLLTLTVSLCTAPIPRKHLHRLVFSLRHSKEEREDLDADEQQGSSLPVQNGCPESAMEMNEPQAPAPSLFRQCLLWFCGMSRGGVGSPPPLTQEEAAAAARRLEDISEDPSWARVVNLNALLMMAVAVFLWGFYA
Protocol: Human sodium/glucose co-transporter type 2 (SGLT2; accession number P31639; GI:400337) was cloned into pIRESpuro2 vector for mammalian expression (construct: HA-SGLT2-pIRESpuro2).
HEK293 cells were transfected with the human HA-SGLT2-pIRESpuro2 vector and the bulk stable cell line was selected in presence of 0.5 μg/mL of puromycin. Human HA-SGLT2 cells were maintained in DMEM media containing 10% FBS, 1% GPS and 0.5 μg/mL of puromycin.
The HEK293 cells expressing the human HA-SGLT2 were seeded in 384 well plates (30,000 cells/well) in DMEM media containing 10% FBS, 1% GPS and 0.5 μg/mL of puromycin, then incubated overnight at 37 C, 5% CO2. Cells were then washed with uptake buffer (140 mM NaCl, 2 mM KCl, 1 mM CaCl2, 1 mM MgCl2, 10 mM HEPES, 5 mM Tris, 1 mg/mL bovine serum albumin (BSA), pH 7.3). Twenty microliters of uptake buffer with or without testing compounds were added to the cells. Then, 20 microliters of uptake buffer containing ^14C-AMG (100 nCi) were added to the cells. The cell plates were incubated at 37° C., 5% CO2 for 1-2 hours. After washing the cells with uptake buffer, scintillation fluid was added (40 microliters/well) and ^14C-AMG uptake was measured by counting radioactivity using a scintillation coulter (TopCoulter NXT; Packard Instruments).

| Compound | IC50 [1] | IC50 [2] | SGLT1 (human SGLT1 IC50) [1] |
| --- | --- | --- | --- |
| CS[C@H]1O[C@@H](c2ccc(C)c(Cc3ccc(CCCCNCC(C)(C)C(=O)N4CCN(C)CC4)cc3)c2)[C@H](O)[C@@H](O)[C@@H]1O [2,2-dimethyl-3-((4-(4-(2-methyl-5-((2S,3R,4R,5S,6R)-3,4,5-trihydroxy-6-(methylthio)tetrahydro-2H-pyran-2-yl)benzyl)phenyl)butyl)amino)-1-(4-methylpiperazin-1-yl)propan-1-one] | < 10 nM | < 10 nM |  |
| CS[C@H]1O[C@@H](c2ccc(Cl)c(Cc3ccc(OCC(=O)O)cc3)c2)[C@H](O)[C@@H](O)[C@@H]1O [2-(4-(2-chloro-5-((2S,3R,4R,5S,6R)-3,4,5-trihydroxy-6-(methylthio)tetrahydro-2H-pyran-2-yl)benzyl)phenoxy)acetic acid] | < 1000 nM | < 100 nM |  |
| CS[C@H]1O[C@@H](c2ccc(C)c(Cc3ccc(OCC(N)=O)cc3)c2)[C@H](O)[C@@H](O)[C@@H]1O [2-(4-(2-methyl-5-((2S,3R,4R,5S,6R)-3,4,5-trihydroxy-6-(methylthio)tetrahydro-2H-pyran-2-yl)benzyl)phenoxy)acetamide] | < 100 nM | < 10 nM |  |
| CS[C@H]1O[C@@H](c2ccc(C)c(Cc3ccc(OCC(=O)O)cc3)c2)[C@H](O)[C@@H](O)[C@@H]1O [2-(4-(2-methyl-5-((2S,3R,4R,5S,6R)-3,4,5-trihydroxy-6-(methylthio)tetrahydro-2H-pyran-2-yl)benzyl)phenoxy)acetic acid] |  | < 100 nM | — |
| CS[C@H]1O[C@@H](c2ccc(Cl)c(Cc3ccc(OCCCC(=O)NC(C)(C)C(=O)O)cc3)c2)[C@H](O)[C@@H](O)[C@@H]1O [2-(4-(4-(2-chloro-5-((2S,3R,4R,5S,6R)-3,4,5-trihydroxy-6-(methylthio)tetrahydro-2H-pyran-2-yl)benzyl)phenoxy)butanamido)-2-methylpropanoic acid] |  | < 100 nM | — |
| CS[C@H]1O[C@@H](c2ccc(C)c(Cc3ccc(CCCc4nnnn4CC(=O)N4CCN(C)CC4)cc3)c2)[C@H](O)[C@@H](O)[C@@H]1O [2-(5-(3-(4-(2-methyl-5-((2S,3R,4R,5S,6R)-3,4,5-trihydroxy-6-(methylthio)tetrahydro-2H-pyran-2-yl)benzyl)phenyl)propyl)-1H-tetrazol-1-yl)-1-(4-methylpiperazin-1-yl)ethanone] | < 10 nM | < 10 nM |  |
| CS[C@H]1O[C@@H](c2ccc(C)c(Cc3ccc(OCC(=O)NC(C)(C)C(N)=O)cc3)c2)[C@H](O)[C@@H](O)[C@@H]1O [2-methyl-2-(2-(4-(2-methyl-5-((2S,3R,4R,5S,6R)-3,4,5-trihydroxy-6-(methylthio)tetrahydro-2H-pyran-2-yl)benzyl)phenoxy)acetamido)propanamide] | < 100 nM | < 10 nM |  |
| CS[C@H]1O[C@@H](c2ccc(C)c(Cc3ccc(CCCCCNC(=O)NC(C)(C)C(N)=O)cc3)c2)[C@H](O)[C@@H](O)[C@@H]1O [2-methyl-2-(3-(5-(4-(2-methyl-5-((2S,3R,4R,5S,6R)-3,4,5-trihydroxy-6-(methylthio)tetrahydro-2H-pyran-2-yl)benzyl)phenyl)pentyl)ureido)propanamide] | < 100 nM | < 10 nM |  |
| CS[C@H]1O[C@@H](c2ccc(C)c(Cc3ccc(OCCCC(=O)NC(C)(C)C(=O)O)cc3)c2)[C@H](O)[C@@H](O)[C@@H]1O [2-methyl-2-(4-(4-(2-methyl-5-((2S,3R,4R,5S,6R)-3,4,5-trihydroxy-6-(methylthio)tetrahydro-2H-pyran-2-yl)benzyl)phenoxy)butanamido)propanoic acid] | < 10 nM | < 10 nM |  |
| CS[C@H]1O[C@@H](c2ccc(C)c(Cc3ccc(CCCC(=O)NC(C)(C)C(=O)O)cc3)c2)[C@H](O)[C@@H](O)[C@@H]1O [2-methyl-2-(4-(4-(2-methyl-5-((2S,3R,4R,5S,6R)-3,4,5-trihydroxy-6-(methylthio)tetrahydro-2H-pyran-2-yl)benzyl)phenyl)butanamido)propanoic acid] | < 100 nM | < 10 nM |  |
| CS[C@H]1O[C@@H](c2ccc(C)c(Cc3ccc(CCCCC(=O)NC(C)(C)C(=O)O)cc3)c2)[C@H](O)[C@@H](O)[C@@H]1O [2-methyl-2-(5-(4-(2-methyl-5-((2S,3R,4R,5S,6R)-3,4,5-trihydroxy-6-(methylthio)tetrahydro-2H-pyran-2-yl)benzyl)phenyl)pentanamido)propanoic acid] |  | < 100 nM | — |

Further lines, results first:

| IC50 [1] | IC50 [2] | SGLT1 (human SGLT1 IC50) [1] | Compound |
| --- | --- | --- | --- |
| < 10 nM | < 10 nM |  | CS[C@H]1O[C@@H](c2ccc(C)c(Cc3ccc(CCCCNCC(C)(C)C(N)=O)cc3)c2)[C@H](O)[C@@H](O)[C@@H]1O [2,2-dimethyl-3-((4-(4-(2-methyl-5-((3R,4R,5S,6R)-3,4,5-trihydroxy-6-(methylthio)tetrahydro-2H-pyran-2-yl)benzyl)phenyl)butyl)amino)propanamide] |
| < 100 nM | < 10 nM |  | CS[C@H]1O[C@@H](c2ccc(Cl)c(Cc3ccc(OCC(=O)NC(C)(C)C(N)=O)cc3)c2)[C@H](O)[C@@H](O)[C@@H]1O [2-(2-(4-(2-chloro-5-((2S,3R,4R,5S,6R)-3,4,5-trihydroxy-6-(methylthio)tetrahydro-2H-pyran-2-yl)benzyl)phenoxy)acetamido)-2-methylpropanamide] |
| < 10 nM | < 10 nM |  | CS[C@H]1O[C@@H](c2ccc(Cl)c(Cc3ccc(OCCCNC(=O)NC(C)(C)C(N)=O)cc3)c2)[C@H](O)[C@@H](O)[C@@H]1O [2-(3-(3-(4-(2-chloro-5-((2S,3R,4R,5S,6R)-3,4,5-trihydroxy-6-(methylthio)tetrahydro-2H-pyran-2-yl)benzyl)phenoxy)propyl)ureido)-2-methylpropanamide] |
| < 100 nM | < 10 nM |  | CS[C@H]1O[C@@H](c2ccc(Cl)c(Cc3ccc(OCC(=O)NC(CO)(CO)CO)cc3)c2)[C@H](O)[C@@H](O)[C@@H]1O [2-(4-(2-chloro-5-((2S,3R,4R,5S,6R)-3,4,5-trihydroxy-6-(methylthio)tetrahydro-2H-pyran-2-yl)benzyl)phenoxy)-N-(1,3-dihydroxy-2-(hydroxymethyl)propan-2-yl)acetamide] |
| < 100 nM | < 10 nM |  | CS[C@H]1O[C@@H](c2ccc(Cl)c(Cc3ccc(OCC(=O)NC(C)(C)C(=O)N4CCN(C)CC4)cc3)c2)[C@H](O)[C@@H](O)[C@@H]1O [2-(4-(2-chloro-5-((2S,3R,4R,5S,6R)-3,4,5-trihydroxy-6-(methylthio)tetrahydro-2H-pyran-2-yl)benzyl)phenoxy)-N-(2-methyl-1-(4-methylpiperazin-1-yl)-1-oxopropan-2-yl)acetamide] |
| < 10 nM | < 10 nM |  | CS[C@H]1O[C@@H](c2ccc(C)c(Cc3ccc(CCCc4nnn(CC(=O)N5CCN(C)CC5)n4)cc3)c2)[C@H](O)[C@@H](O)[C@@H]1O [2-(5-(3-(4-(2-methyl-5-((2S,3R,4R,5S,6R)-3,4,5-trihydroxy-6-(methylthio)tetrahydro-2H-pyran-2-yl)benzyl)phenyl)propyl)-2H-tetrazol-2-yl)-1-(4-methylpiperazin-1-yl)ethanone] |
| < 10 nM | < 10 nM |  | CS[C@H]1O[C@@H](c2ccc(C)c(Cc3ccc(CCCCNC(=O)NC(C)(C)C(N)=O)cc3)c2)[C@H](O)[C@@H](O)[C@@H]1O [2-methyl-2-(3-(4-(4-(2-methyl-5-((2S,3R,4R,5S,6R)-3,4,5-trihydroxy-6-(methylthio)tetrahydro-2H-pyran-2-yl)benzyl)phenyl)butyl)ureido)propanamide] |
| < 10 nM | < 10 nM |  | CS[C@H]1O[C@@H](c2ccc(C)c(Cc3ccc(CCCCNC(C)(C)C(=O)N4CCN(C)CC4)cc3)c2)[C@H](O)[C@@H](O)[C@@H]1O [2-methyl-2-((4-(4-(2-methyl-5-((2S,3R,4R,5S,6R)-3,4,5-trihydroxy-6-(methylthio)tetrahydro-2H-pyran-2-yl)benzyl)phenyl)butyl)amino)-1-(4-methylpiperazin-1-yl)propan-1-one] |
